# Measurements reported in US11498919B2, “Azaindolylpyridone and diazaindolylpyridone compounds” (Sprint Bioscience AB, priority 2017, dated 2022).
# Legend:
# Vps34 enzyme = Vps34 enzyme (Homo sapiens (Human), UniProt Q8NEB9); test: Vps34 Biochemical Assay (Adapta kinase assay, TR-FRET); settings: 20 μM ATP and 200 μM PI:PS in substrate mix, 1 h at room temperature, read-out: Median IC50 nM Adapta
# Procedure: Dilution series of compounds of the invention were prepared in DMSO at 100 times the final assay concentration (n1=n0/3 in 10 points). The compounds were further diluted to 4 times the assay concentration in assay buffer (Life technologies buffer Q, PV5125, diluted 5 times supplemented with 2 mM DTT and 2 mM MnCl2). 2.5 μl of the diluted compounds were added to a 384 well assay plate followed by 2.5 μl of 16.5 nM Vps34 enzyme (Life technologies, PV5126). Enzyme and compounds were pre-incubated at rt for 15 min. Then 5 μl of substrate mix containing 20 μM ATP (Life technologies, PV3227) and 200 μM PI:PS substrate (Life technologies, PV5122) in assay buffer was added to the wells containing compound and enzyme. Mixing was performed by pipetting several times. The reaction was incubated at room temperature for 1 h. Then 5 μl stop-detection mix, prepared as described in the Adapta kinase assay kit instructions (Life technologies, PV5099) containing Adapta Eu-anti-ADP antibody (2.3 nM), Alexa Fluor 647 ADP tracer (9 nM) and EDTA (30 mM) in TR-FRET buffer, was added to quench the reaction. Mixing was performed by pipetting several times. The assay plate was then incubated at room temperature for 30 min and read with Artemis micro plate reader. Percent inhibition of the compounds as compared to DMSO treated control samples was calculated. By the use of Dotmatics software compound concentration versus percent inhibition was fitted to generate IC50 values.
# [1] = tested on: Human osteosarcoma cells (HOS) stably expressing GFP-LC3; test: High Content Screening Autophagy Assay (GFP-LC3 foci); type: cell-based; settings: autophagy in HOS cells, activated with KU-0063794 500 nM plus Bafilomycin A1 5 nM, 6 hours, LC3-GFP foci area per cell, read-out: Median IC50 (nM) Cellular assay
# Procedure: Human osteosarcoma cells (HOS) stably expressing a Green Fluorescent Protein (GFP) tagged LC3 (GFP-LC3) were used to determine the inhibitory effect on autophagy of proprietary compounds. For that purpose, autophagy was activated by using the mTOR inhibitor KU-0063794 at 500 nM in the presence of Bafilomycin A1 (Sigma-Aldrich) at 5 nM. Shortly, cells were plated overnight in clear bottom 96-well plates in DMEM—High Modified media (Hi-Clone Cat #SH30285.01). At the start of the experiment, the media was removed and replaced with fresh media containing the mTOR inhibitor, Bafilomycin A1 and the vehicle or a test compound as indicated. After 6 hours the media was removed, cells were washed twice with ice-cold phosphate buffered saline (PBS) and fixed with 4% paraformaldehyde for 20 minutes at room temperature. Then the cells were washed twice with ice-cold PBS before adding Hoechst 33342 at 1 μg/ml in PBS for nuclear staining. After incubation overnight at 4° C., cells were washed once with PBS to remove the excess of dye and 100 μl of PBS was added to each well. Images were acquired at 20× magnification, 6 images per well, using the ImageXpress automated microscope (Molecular Devices Inc.) and analyzed with MetaXpress software to identify LC3-GFP foci. Foci area per cell values were used to generate dose response curves and IC50 values were calculated using the non-linear fitting analysis in GraphPad Prism software. […] The results of the assay are shown in Table 2 (Median IC50 nM HOS-LC3).
# Chain of Vps34 enzyme (Q8NEB9 whole entry): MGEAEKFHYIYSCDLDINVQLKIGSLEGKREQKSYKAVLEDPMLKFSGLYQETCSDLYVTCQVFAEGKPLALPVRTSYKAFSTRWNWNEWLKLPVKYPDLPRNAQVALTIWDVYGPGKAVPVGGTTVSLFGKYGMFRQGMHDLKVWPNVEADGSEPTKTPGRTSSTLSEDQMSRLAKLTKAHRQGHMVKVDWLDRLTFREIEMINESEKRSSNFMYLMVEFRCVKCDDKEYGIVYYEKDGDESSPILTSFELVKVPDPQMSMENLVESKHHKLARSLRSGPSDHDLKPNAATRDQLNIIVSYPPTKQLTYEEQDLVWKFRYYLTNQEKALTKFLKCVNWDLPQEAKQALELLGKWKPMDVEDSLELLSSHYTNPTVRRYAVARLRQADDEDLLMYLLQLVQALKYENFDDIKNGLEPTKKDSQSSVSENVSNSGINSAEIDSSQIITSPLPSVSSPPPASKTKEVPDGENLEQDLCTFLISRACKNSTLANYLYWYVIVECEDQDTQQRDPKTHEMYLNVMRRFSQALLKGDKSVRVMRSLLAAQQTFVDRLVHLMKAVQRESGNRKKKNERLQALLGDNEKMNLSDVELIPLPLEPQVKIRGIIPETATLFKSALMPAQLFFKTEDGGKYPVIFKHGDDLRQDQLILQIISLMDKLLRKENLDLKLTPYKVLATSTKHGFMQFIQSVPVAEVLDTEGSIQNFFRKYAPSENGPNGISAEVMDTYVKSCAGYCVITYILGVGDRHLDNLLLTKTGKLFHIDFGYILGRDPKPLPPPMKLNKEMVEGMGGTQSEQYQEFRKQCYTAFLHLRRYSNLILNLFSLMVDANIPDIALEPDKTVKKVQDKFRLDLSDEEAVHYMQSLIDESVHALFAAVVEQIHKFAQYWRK
SMILES,IC50 (Vps34 enzyme) [nM],IC50 [1] [nM]
"O=c1cc(-c2ccnc3[nH]c(-c4cncc(C(F)(F)F)c4)cc23)cc(N2CCCCC2C(F)(F)F)[nH]1 (stereo not shown) [Example 58, 6-[2-(Trifluoromethyl)-1-piperidyl]-4-[2-[5-(trifluoromethyl)-3-pyridyl]-1H-pyrrolo[2,3-b]pyridin-4-yl]-1H-pyridin-2-one]",7,–
"O=c1cc(-c2ccnc3[nH]ccc23)cc(N2CCOCC2C(F)(F)F)[nH]1 (stereo not shown) [Example 42, 4-(1H-pyrrolo[2,3-b]pyridin-4-yl)-6-[3-(trifluoromethyl)morpholin-4-yl]-1H-pyridin-2-one]",< 5,473
"O=c1cc(-c2ccnc3[nH]c(-c4cnc(C(F)(F)F)nc4)cc23)cc(N2CCCCC2C(F)(F)F)[nH]1 (stereo not shown) [Example 52, 6-[2-(Trifluoromethyl)-1-piperidyl]-4-[2-[2-(trifluoromethyl)pyrimidin-5-yl]-1H-pyrrolo[2,3-b]pyridin-4-yl]-1H-pyridin-2-one]",< 5,–
"O=c1cc(-c2ccnc3[nH]ccc23)cc(N2CCCCC2C(F)(F)F)[nH]1 (stereo not shown) [Example 37, 4-(1H-pyrrolo[2,3-b]pyridin-4-yl)-6-[2-(trifluoromethyl)-1-piperidyl]-1H-pyridin-2-one]",< 5,145
"Cc1cc2c(-c3cc(N4CCOCC4)[nH]c(=O)c3)ccnc2[nH]1 [Example 16, 4-(2-Methyl-1H-pyrrolo[2,3-b]pyridin-4-yl)-6-morpholino-1H-pyridin-2-one]",12,–
"O=c1cc(-c2ccnc3[nH]c(-c4cccnc4)cc23)cc(-c2ccccc2Cl)[nH]1 [Example 27, 6-(2-Chlorophenyl)-4-[2-(3-pyridyl)-1H-pyrrolo[2,3-b]pyridin-4-yl]-1H-pyridin-2-one]",< 5,16
"O=c1cc(-c2ccnc3[nH]ncc23)cc(N2CCCCC2C(F)(F)F)[nH]1 (stereo not shown) [Example 49, 4-(1H-pyrazolo[3,4-b]pyridin-4-yl)-6-[2-(trifluoromethyl)-1-piperidyl]-1H-pyridin-2-one]",< 5,62
"O=c1cc(-c2ccnc3[nH]ccc23)cc(-c2ccccc2C(F)(F)F)[nH]1 [Example 4, 4-(1H-pyrrolo[2,3-b]pyridin-4-yl)-6-[2-(trifluoromethyl)phenyl]-1H-pyridin-2-one]",< 5,665
"CS(=O)(=O)N1CCN(c2cc(-c3ccnc4[nH]ncc34)cc(=O)[nH]2)C(C(F)(F)F)C1 (stereo not shown) [Example 88, 6-[4-Methylsulfonyl-2-(trifluoromethyl)piperazin-1-yl]-4-(1H-pyrazolo[3,4-b]pyridin-4-yl)-1H-pyridin-2-one]",< 5,–
"Cc1ccc(-c2cc3c(-c4cc(N5CCOCC5C(F)(F)F)[nH]c(=O)c4)ccnc3[nH]2)s1 (stereo not shown) [Example 48, 4-[2-(5-Methyl-2-thienyl)-1H-pyrrolo[2,3-b]pyridin-4-yl]-6-[3-(trifluoromethyl)morpholin-4-yl]-1H-pyridin-2-one]",< 5,–
"Cc1cc2c(-c3cc(-c4cccnc4)[nH]c(=O)c3)ccnc2[nH]1 [Example 12, 4-(2-Methyl-1H-pyrrolo[2,3-b]pyridin-4-yl)-6-(3-pyridyl)-1H-pyridin-2-one]",24,554
"O=c1cc(-c2ccnc3[nH]c(-c4cccc(C(F)(F)F)c4)cc23)cc(N2CCOCC2C(F)(F)F)[nH]1 (stereo not shown) [Example 45, 6-[3-(Trifluoromethyl)morpholin-4-yl]-4-[2-[3-(trifluoromethyl)phenyl]-1H-pyrrolo[2,3-b]pyridin-4-yl]-1H-pyridin-2-one]",34,–
"Cc1cc2c(-c3cc(N4CCCCC4C(F)(F)F)[nH]c(=O)c3)ccnc2[nH]1 (stereo not shown) [Example 36, 4-(2-Methyl-1H-pyrrolo[2,3-b]pyridin-4-yl)-6-[2-(trifluoromethyl)-1-piperidyl]-1H-pyridin-2-one]",< 5,62
"O=c1cc(-c2ccnc3[nH]ccc23)cc(N2CCCC2c2ccccc2)[nH]1 (stereo not shown) [Example 8, 6-(2-phenylpyrrolidin-1-yl)-4-(1H-pyrrolo[2,3-b]pyridin-4-yl)-1H-pyridin-2-one]",10,366
"O=c1cc(-c2ccnc3[nH]c(-c4cnco4)cc23)cc(-c2ccccc2Cl)[nH]1 [Example 23, 6-(2-Chlorophenyl)-4-(2-oxazol-5-yl-1H-pyrrolo[2,3-b]pyridin-4-yl)-1H-pyridin-2-one]",8,44
"CCS(=O)(=O)N1CCN(c2cc(-c3ccnc4[nH]c(C)cc34)cc(=O)[nH]2)C(C(F)(F)F)C1 (stereo not shown) [Example 73, 6-[4-Ethylsulfonyl-2-(trifluoromethyl)piperazin-1-yl]-4-(2-methyl-1H-pyrrolo[2,3-b]pyridin-4-yl)-1H-pyridin-2-one]",< 5,28
"O=c1cc(-c2ccnc3[nH]ccc23)cc(N2CCN(S(=O)(=O)Cc3ccc(F)cc3)CC2C(F)(F)F)[nH]1 (stereo not shown) [Example 65, 6-[4-[(4-fluorophenyl)methylsulfonyl]-2-(trifluoromethyl)piperazin-1-yl]-4-(1H-pyrrolo[2,3-b]pyridin-4-yl)-1H-pyridin-2-one]",< 5,176
"O=c1cc(-c2ccnc3[nH]ncc23)cc(-c2ccccc2C(F)(F)F)[nH]1 [Example 82, 4-(1H-pyrazolo[3,4-b]pyridin-4-yl)-6-[2-(trifluoromethyl)phenyl]-1H-pyridin-2-one]",< 5,485
"CCS(=O)(=O)N1CCN(c2cc(-c3ccnc4[nH]ccc34)cc(=O)[nH]2)C(C(F)(F)F)C1 (stereo not shown) [Example 71, 6-[4-Ethylsulfonyl-2-(trifluoromethyl)piperazin-1-yl]-4-(1H-pyrrolo[2,3-b]pyridin-4-yl)-1H-pyridin-2-one]",< 5,308
"CCS(=O)(=O)N1CCN(c2cc(-c3ccnc4[nH]c(C#N)cc34)cc(=O)[nH]2)C(C(F)(F)F)C1 (stereo not shown) [Example 74, 4-[2-[4-Ethylsulfonyl-2-(trifluoromethyl)piperazin-1-yl]-6-oxo-1H-pyridin-4-yl]-1H-pyrrolo[2,3-b]pyridine-2-carbonitrile]",< 5,89
"CCS(=O)(=O)N1CCN(c2cc(-c3ccnc4[nH]c(C5CC5)cc34)cc(=O)[nH]2)C(C(F)(F)F)C1 (stereo not shown) [Example 72, 4-(2-Cyclopropyl-1H-pyrrolo[2,3-b]pyridin-4-yl)-6-[4-ethylsulfonyl-2-(trifluoromethyl)piperazin-1-yl]-1H-pyridin-2-one]",< 5,19
"N#Cc1cc2c(-c3cc(-c4ccccc4C(F)(F)F)[nH]c(=O)c3)ccnc2[nH]1 [Example 80, 4-[2-Oxo-6-[2-(trifluoromethyl)phenyl]-1H-pyridin-4-yl]-1H-pyrrolo[2,3-b]pyridine-2-carbonitrile]",< 5,–
"Cc1cnccc1-c1cc(-c2ccnc3[nH]ccc23)cc(=O)[nH]1 [Example 6, 6-(3-Methyl-4-pyridyl)-4-(1H-pyrrolo[2,3-b]pyridin-4-yl)-1H-pyridin-2-one]",20,2570
"O=c1cc(-c2ccnc3[nH]c(-c4ccc(C(F)(F)F)nc4)cc23)cc(N2CCCCC2C(F)(F)F)[nH]1 (stereo not shown) [Example 55, 6-[2-(Trifluoromethyl)-1-piperidyl]-4-[2-[6-(trifluoromethyl)-3-pyridyl]-1H-pyrrolo[2,3-b]pyridin-4-yl]-1H-pyridin-2-one]",< 5,–
"O=c1cc(-c2ccnc3[nH]c(C4CC4)cc23)cc(-c2ccccc2C(F)(F)F)[nH]1 [Example 79, 4-(2-cyclopropyl-1H-pyrrolo[2,3-b]pyridin-4-yl)-6-[2-(trifluoromethyl)phenyl]-1H-pyridin-2-one]",< 5,–
"Cc1cc2c(-c3cc(-c4ccccc4Cl)[nH]c(=O)c3)ccnc2[nH]1 [Example 29, 6-(2-Chlorophenyl)-4-(2-methyl-1H-pyrrolo[2,3-b]pyridin-4-yl)-1H-pyridin-2-one]",< 5,54
